The record followed here is US11000033B2, “Ketone or oxime compound, and herbicide” (NISSAN CHEMICAL CORPORATION, priority 2014, dated 2021).

Common to all, as to type: in vivo
Series [1] relates to Veronica persica. The series can be described thus: Test Example 5: herbicidal effect by foliage application, plastic box (symbol R). Particulars: 320 g/ha, 3 weeks after application. The method in brief: (§1)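 Leaf-applied emulsion, water-diluted to a preset herbicide dose, on two-week-old seedlings raised in a 25° C. to 30° C. greenhouse; injury rated at 3 weeks using earlier criteria.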

Series [2] relates to Echinochloa crus-galli var. crus-galli. The series can be described thus: Test Example 4: herbicidal effect by soil treatment (symbol H). The method in brief: (§2)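 Seeds were sown in sterilized diluvial soil, covered with about 1.5 cm of soil, and the soil surface was sprayed with a water-diluted emulsion of the compound at a predetermined rate. Plants grew in a greenhouse at 25° C. to 30° C.; effects were scored visually 3 weeks after application.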

Series [3] relates to Setaria viridis. The series can be described thus: Test Example 4: herbicidal effect by soil treatment (symbol G). A digest of the protocol: as §2
Series [4] relates to rice. The series can be described thus: Test Example 4: effect on crop by soil treatment (symbol b). A digest of the protocol:
(§3)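 Sterilized diluvial soil, spot sowing, ~1.5 cm soil cover; greenhouse 25–30° C.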

Series [5] has as its system wheat. The series can be described thus: Test Example 5: effect on crop by foliage application, plastic box (symbol e). Particulars: 320 g/ha, 3 weeks after application. A digest of the protocol:
(§4)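 Greenhouse test at 25° C. to 30° C. Seeds of crops and weeds were spot-sown in boxes of sterilized diluvial soil under roughly 1.5 cm soil cover, then grown for foliage treatment.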

The test system of series [6] is Scirpus juncoides. The series can be described thus: Test Example 1: herbicidal activity, application before weed generation in submerged conditions (symbol B). Particulars: application herbicide amount 320 g/ha. The method in brief: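 Mixed weed seeds sown in alluvial soil under 4 cm of water, with rice seedlings at the 2.5-leaf stage added. Same-day treatment: emulsion diluted to a set herbicide amount onto the water. Three weeks at 25–30 °C, then graded on a six-step scale.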

In series [7] the test system is soybean. The series can be described thus: Test Example 5: effect on crop by foliage application, plastic box (symbol d). Particulars: 320 g/ha, 3 weeks after application. A digest of the protocol:
as §4

In series [8] the test system is corn. The series can be described thus: Test Example 5: effect on crop by foliage application, plastic box (symbol c). Particulars: 320 g/ha, 3 weeks after application. The method in brief:
as §4

For series [9], the system named is wheat. The series can be described thus: Test Example 4: effect on crop by soil treatment (symbol e). A digest of the protocol:
as §3

The test system of series [10] is Stellaria media. The series can be described thus: Test Example 4: herbicidal effect by soil treatment (symbol P). The method in brief:
as §2

For series [11], the system named is Apera spica-venti. The series can be described thus: Test Example 5: herbicidal effect by foliage application, plastic box (symbol L). Particulars: 320 g/ha, 3 weeks after application. The method in brief: as §1
Series [12] has as its system Echinochloa crus-galli var. crus-galli. The series can be described thus: Test Example 3: herbicidal effect by foliage application, Wagner pot (symbol H). Particulars: application herbicide amount 320 g/ha. The method in brief:
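Foliar spray of a water-diluted emulsion at a predetermined herbicide amount, applied to 14-day-old plants. Seedlings were raised in flooded alluvial soil (0.1–0.5 cm water) at 25–30 °C in a greenhouse. Injury was rated after 3 weeks against fixed criteria.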

The subject of series [13] is Alopecurus myosuroides. The series can be described thus: Test Example 4: herbicidal effect by soil treatment (symbol J). A digest of the protocol:
as §2

Series [14] deals with rapeseed. The series can be described thus: Test Example 5: effect on crop by foliage application, plastic box (symbol g). Particulars: 320 g/ha, 3 weeks after application. The method in brief: as §4
In series [15] the test system is Lolium multiflorum Lam. The series can be described thus: Test Example 4: herbicidal effect by soil treatment (symbol K). A digest of the protocol: as §2
The subject of series [16] is corn. The series can be described thus: Test Example 4: effect on crop by soil treatment (symbol c). The method in brief:
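Diluvial soil (sterilized) in boxes; seeds placed spot-wise alongside weed species; ~1.5 cm covering soil. Greenhouse, 25–30° C.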

Series [17] deals with Digitaria ciliaris. The series can be described thus: Test Example 5: herbicidal effect by foliage application, plastic box (symbol F). Particulars: 320 g/ha, 3 weeks after application. The method in brief:
as §1

[18] abbreviates: application herbicide amount 320 g/ha.

As to `CON=C(C)CC1CC(OC(=O)C(C)Oc2ccc(Oc3cnc4cc(Cl)ccc4n3)cc2)=C(c2c(C)cc(C)cc2C)C1=O` (stereo not shown) [1-087], in [1], the “R: Veronica persica, herbicidal effect (criteria 0-5)” value was 3 (Herbicidal ratio of 40% or higher and lower than 70%). Moreover, the “H: Echinochloa crus-galli var. crus-galli, herbicidal effect grade” value in series [2] (320 g/ha) was 5 (Herbicidal ratio of 90% or more (almost completely withered)). Moreover, in [3] (320 g/ha), the “G: Setaria viridis, herbicidal effect grade” value is reported as 5 (Herbicidal ratio of 90% or more (almost completely withered)). In addition, the “b: directly sowed rice plant, effect grade on crop” value in series [4] (320 g/ha) was 5 (Herbicidal ratio of 90% or more (almost completely withered)). In addition, the “e: wheat, effect on crop (criteria 0-5)” value in [5] is listed as 5 (Herbicidal ratio of 90% or more (almost completely withered)). Moreover, the “Herbicidal effect grade, B: Scirpus juncoides” value in [6] is given as 5 (Herbicidal ratio of 90% or more (almost completely withered)). Moreover, the “d: soybean, effect on crop (criteria 0-5)” value in [7] is 3 (Herbicidal ratio of 40% or higher and lower than 70%). The “c: corn, effect on crop (criteria 0-5)” value in series [8] is 5 (Herbicidal ratio of 90% or more (almost completely withered)). Also, the “e: wheat, effect grade on crop” value in series [9] (320 g/ha) is 5 (Herbicidal ratio of 90% or more (almost completely withered)). The “P: Stellaria media, herbicidal effect grade” value in series [10] (320 g/ha) is on record as 0 (Herbicidal ratio of 5% or lower (almost no effect)). The “L: Apera spica-venti, herbicidal effect (criteria 0-5)” value in [11] was 5 (Herbicidal ratio of 90% or more (almost completely withered)). Also, the “herbicidal effect on H (Echinochloa crus-galli var. crus-galli), grade 0-5” value in series [12] is 5 (Herbicidal ratio of 90% or more (almost completely withered)). The “J: Alopecurus myosuroides, herbicidal effect grade” value in series [13] (320 g/ha) was 5 (Herbicidal ratio of 90% or more (almost completely withered)). The “g: rapeseed, effect on crop (criteria 0-5)” value in series [14] was 4 (Herbicidal ratio of 70% or higher and lower than 90%). The “K: Lolium multiflorum Lam., herbicidal effect grade” value in series [15] (320 g/ha) was 5 (Herbicidal ratio of 90% or more (almost completely withered)). The “c: corn, effect grade on crop” value in series [16] (320 g/ha) was 3 (Herbicidal ratio of 40% or higher and lower than 70%). Also, the “F: Digitaria ciliaris, herbicidal effect (criteria 0-5)” value in series [17] is listed as 5 (Herbicidal ratio of 90% or more (almost completely withered)).
With `CON=C(CC1CC1)CC1CC(O)=C(c2c(C)cc(C)cc2C)C1=O` (stereo not shown) [1-070], the “R: Veronica persica, herbicidal effect grade” value in series [1] is 2 (Herbicidal ratio of 20% or higher and lower than 40%). Also, the “H (Echinochloa crus-galli var. crus-galli) herbicidal effect grade” value in series [2] (setting [18]) is 4 (Herbicidal ratio of 70% or higher and lower than 90%). Besides, the “G (Setaria viridis) herbicidal effect grade” value in series [3] (setting [18]) is 4 (Herbicidal ratio of 70% or higher and lower than 90%). The “b (directly sowed rice plant) effect on crop grade” value in [4] (setting [18]) is 5 (Herbicidal ratio of 90% or more (almost completely withered)). In [5], the “e: wheat, effect on crop grade” value is 0 (Herbicidal ratio of 5% or lower (almost no effect)). Moreover, in series [6], the “Herbicidal effect grade, B: Scirpus juncoides” value is 0 (Herbicidal ratio of 5% or lower (almost no effect)). Also, in [7], the “d: soybean, effect on crop grade” value is listed as 0 (Herbicidal ratio of 5% or lower (almost no effect)). Further, the “c: corn, effect on crop grade” value in series [8] is 4 (Herbicidal ratio of 70% or higher and lower than 90%). In addition, in series [9] (setting [18]), the “e (wheat) effect on crop grade” value is reported as 0 (Herbicidal ratio of 5% or lower (almost no effect)). In addition, the “P (Stellaria media) herbicidal effect grade” value in [10] (setting [18]) was 0 (Herbicidal ratio of 5% or lower (almost no effect)). Further, in series [11], the “L: Apera spica-venti, herbicidal effect grade” value was 4 (Herbicidal ratio of 70% or higher and lower than 90%). In addition, the “herbicidal effect on H (Echinochloa crus-galli var. crus-galli), grade 0-5” value in [12] is on record as 5 (Herbicidal ratio of 90% or more (almost completely withered)). For the same compound, in [13] (setting [18]), the “J (Alopecurus myosuroides) herbicidal effect grade” value is listed as 5 (Herbicidal ratio of 90% or more (almost completely withered)). The “g: rapeseed, effect on crop grade” value in [14] was 3 (Herbicidal ratio of 40% or higher and lower than 70%). For the same compound, the “K (Lolium multiflorum Lam.) herbicidal effect grade” value in series [15] (setting [18]) is given as 5 (Herbicidal ratio of 90% or more (almost completely withered)). In addition, the “c (corn) effect on crop grade” value in [16] (setting [18]) was 1 (Herbicidal ratio of 5% or higher and lower than 20%). Moreover, in series [17], the “F: Digitaria ciliaris, herbicidal effect grade” value was 1 (Herbicidal ratio of 5% or higher and lower than 20%).
